# Data taken from patent US8834840B1, “Magnetic resonance imaging of self-assembled biomaterial scaffolds” (Northwestern University, priority 2006, dated 2014).
# Experiment: T1 measurements / MR imaging of PA gels at 9.4 T
# Type: physicochemical
# Settings: gel of 0.75 wt. % filler PA 1, agent mixed in at 0.1 mM Gd(III) (1 alone without Gd(III)), spin-echo
# Method: FIG. 4 depicts results of T1 study of PA gels and mixed PA gels. The concentration of Gd(III) is 0.1 mM in all samples except a and the concentration of filler PA is […] in each case (all samples form self-supporting gels): a corresponds to compound 1 alone and is used as a standard, b refers to 1 mixed with DTPA, c refers to 1 mixed with compound 2, d refers to 1 mixed with compound 3, e through j are mixed with compound 3 and their structures are depicted above. Error bars represent one standard deviation.
# Mixing PACAs 2 or 3 with filler PA 1 could be successfully imaged by MR (FIG. 3). The gels are homogeneous in image intensity throughout the samples, which implies uniform mixing of the PACA molecules within the filler PA at MR resolution. If heterogeneous mixing of PAs occur on a large enough scale, domains of bright and dark intensity would be observed. […] The gels were made using a 0.75 wt. % of filler PA. The PACA molecule was mixed into this solution before gelling as was the DTPA. Images were acquired using a spin-echo pulse sequence with TR 750 ms, TC 12 ms, slice thickness of 1 mm, FOV of 2 cm, at 9.4 T on an Oxford superconducting magnet and Bruker software. The T1 of these gels were measured at 3.03±0.05 s, 1.89±0.06 s, 1.08±0.06 s, and 2.81±0.05 s, respectively, the faster T1's resulting in higher contrast.
# T1 Measurements. […]
compound,measurement,value
"O=C(O)CN(CCN(CC(=O)O)CC(=O)O)CCN(CC(=O)O)CC(=O)O [DTPA, diethylenetriaminepentaacetate]",T1 of gels,2.81 ± 0.05 s
